{
  "source": "patent US7053118B1",
  "about": "“Lactone compounds and methods of use” (Harbor Branch Oceanographic Institution, Inc., priority 2003, dated 2006)",
  "format_in_all_cases": "cell-based",
  "key": {"[1]": {"test_system": "PANC-1 human pancreatic cell line", "experiment": "Antiproliferative MTT assay, PANC-1 cell line", "conditions": "PANC-1 cells, additional 48 hr exposure prior to MTT addition", "description": "(§1) Extracts and compounds were analyzed as to their effects on proliferation of A549 human adenocarcinoma, PANC-1 human pancreatic and P388 murine leukemia cell lines. P388 cells were obtained from Dr. R. Camalier, National Cancer Institute, Bethesda, Md., and A549 and PANC-1 cells were obtained from American Type Culture Collection, Rockville, Md. All cell lines were maintained in Roswell Park Memorial Institute (RPMI) medium 1640 supplemented with 10% fetal bovine serum. All cell lines are cultured in plastic tissue culture flasks and kept in an incubator at 37° C. in humidified air containing 5% CO2. Prior to testing, antibiotic-free stock cultures of each of the cell lines were subcultured to 10^6 cells/ml by dilution in fresh growth medium at 2 to 3 day intervals.\n(§2) To assess the antiproliferative effects of extracts and compounds against the P388 cell line, 200 μl cultures (96-well tissue culture plates, Nunc, Denmark) are established at 1×10^5 cells/ml in drug-free medium or medium containing the test agent at 10.0, 1.0, 0.10 and 0.010 μg/ml. Solvent for all dilutions ethanol. […]\n(§3) Similar procedures are utilized for A549 and PANC-1 cells which require an additional 48 hr exposure prior to MTT addition. Results are expressed as percent inhibition compared to the negative (no drug) control. […]"}, "[2]": {"test_system": "P388 murine leukemia cell line", "experiment": "Antiproliferative MTT assay, P388 cell line", "conditions": "P-388 cells, 48-h exposure", "description": "as §1\nas §2, with “ethanol. All experimental cultures are initiated in medium containing Gentamycin sulfate (50 μg/ml; Schering Corporation, Kenilworth, N.J.).” for “ethanol.”"}, "[3]": {"test_system": "A549 human adenocarcinoma cell line", "experiment": "Antiproliferative MTT assay, A549 cell line", "conditions": "A549 cells, additional 48 hr exposure prior to MTT addition", "description": "as §1, §2, §3"}},
  "data": [
    {"smiles": "C=C1C[C@@](C)(/C=C/C=C/CCCCCCCC)OC1=O", "note": "[plakolide A]", "values": [
      {"measurement": "Activity (IC50 μg/ml)", "setting": "[1]", "value": 3.78, "unit": "µg/mL"},
      {"measurement": "Activity (IC50 μg/ml)", "setting": "[2]", "value": 1.09, "unit": "µg/mL"},
      {"measurement": "Activity (IC50 μg/ml)", "setting": "[3]", "value": 5.0, "unit": "µg/mL"}
    ]}
  ]
}
